Patent US12522562B2, “Intestine-specific partial agonists of farnesoid X receptor and uses thereof” (EWHA DrugDesignHouse Co., Ltd., priority 2022, dated 2026)
Read-outs that look alike come from different tables or passages of the source. Marks after values point to notes of the source that are not given here. One block for each compound: values may come before it.

How the values were obtained:
[1] = test system: patients with non-cirrhotic NASH; details: 100 mg, Phase II; cited from earlier work
[2] = Pharmacokinetic studies of Example 11 in rats; format: in vivo, Sprague-Dawley rats; details: for detected after (time after oral administration): oral Example 11, 80 mg/kg
Experimental: To investigate whether Example 11 is indeed an intestine-selective/specific FXR agonist, its pharmacokinetic profile was evaluated. Male Sprague-Dawley rats (7-week old, 240-260 g) were purchased from Orient Bio. Inc. (Seongnam, Korea). Rats were kept in the cage maintained under a controlled environment (temperature of 23±3° C., relative humidity of 50±5%, and 12 h dark-light cycle) for at least 3 days. Rats were fasted overnight before dose administration. The Example 11 was dissolved in a mixture of DMSO, Tween 80, and 0.9% saline solution (v:v:v, 1:1:8) at a concentration of 2.5 mg/mL for intravenous injection (IV). Also, Example 11 was dissolved in corn oil for oral administration (PO). Rats were divided into two groups; IV group and PO group including at least 6 animals per group. After anesthetized with isoflurane, rats were given the dose of 5 mg/kg via IV injection or 80 mg/kg via PO administration by oral gavage into the stomach. Blood samples (approximately 0.25 mL) were obtained by subclavian vein puncture at 0, 0.033, 0.083, 0.167, 0.333, 0.667, 1, 2, 3, 5, 7, 10, and 24 h after IV injection. After PO administration, blood samples were obtained at 0, 0.083, 0.167, 0.333, 0.667, 1, 2, 3, 5, 7, 10, and 24 h post-dose. Subsequently, blood samples were collected in 1.5-mL Eppendorf tube on an ice. The tubes were centrifuged at 13500 rpm for 15 min at 4° C. to separate the plasma fraction. Then, the plasma samples were stored at […] until HPLC analysis. To prepare the samples for HPLC analysis, 5 μL of Example 11 or Example 24 and 5 μL of internal standard, Example 4 were added to 45 μL of plasma. For extraction, 45 μL of MeCN was added to the mixture. Then, the mixture was vortexed for 2 min and centrifuged at 13500 rpm for 15 min at room temperature. The 60 μL of clear supernatant was transferred to an insert. Then, the HPLC auto-injector was programmed to inject 40 μL of the sample to the HPLC system for analysis. The linearity of the calibration curve was obtained by plotting the peak area ratio (area of Example 11 or area of Example 24/area of Example 4). Pharmacokinetic parameters were calculated by non-compartmental analysis of the plasma concentration-time profiles using Winnonlin® Professional version 8.01 software (Pharsight Corporation, Mountain View, CA). Oral bioavailability (F) was calculated by the ratio of the dose-corrected area under the plasma drug concentration-time curve (AUClast) between oral administration and intravenous injection.

FXR [3] = target: T1, FXR (Homo sapiens, UniProt Q96RI1); test: PathHunter NHR protein interaction assay, agonist mode (FXR); details: for % max. rel. efficacy: Table 5; for % max. rel. efficacy / Emax: relative to GW4064
T1 sequence (Q96RI1 1-486): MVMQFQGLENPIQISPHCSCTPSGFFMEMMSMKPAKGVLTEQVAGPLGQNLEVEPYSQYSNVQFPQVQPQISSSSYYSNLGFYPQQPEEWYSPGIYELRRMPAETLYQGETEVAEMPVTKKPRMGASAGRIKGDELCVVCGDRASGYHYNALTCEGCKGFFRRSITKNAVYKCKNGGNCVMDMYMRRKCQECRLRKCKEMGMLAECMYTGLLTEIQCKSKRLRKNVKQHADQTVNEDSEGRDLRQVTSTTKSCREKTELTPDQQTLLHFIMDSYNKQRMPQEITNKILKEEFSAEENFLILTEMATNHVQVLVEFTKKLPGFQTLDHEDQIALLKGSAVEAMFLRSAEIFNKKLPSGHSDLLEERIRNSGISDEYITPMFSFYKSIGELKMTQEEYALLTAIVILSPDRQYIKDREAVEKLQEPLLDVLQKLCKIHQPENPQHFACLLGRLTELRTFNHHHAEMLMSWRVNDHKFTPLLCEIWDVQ
Experimental: PathHunter® CHO-K1 FXR protein interaction cells were expanded from freezer stocks according to standard procedures. Cells were seeded in a total volume of 20 μL into white walled, 384-well microplates and incubated at 37° C. for the appropriate time prior to testing. Assay media contained charcoal-dextran filtered serum to reduce the level of hormones present. For agonist determination, cells were incubated with sample to induce response. […] For antagonist determination, cells were pre-incubated with antagonist followed by agonist challenge at the EC80 concentration. […] Microplates were read following signal generation with a PerkinElmer Envision™ instrument for chemiluminescent signal detection. Compound activity was analyzed using CBIS data analysis suite (ChemInnovation, CA). For agonist mode assays, percentage activity was calculated using the following formula: % Activity=100%×(mean RLU of test sample−mean RLU of vehicle control)/(mean MAX control ligand−mean RLU of vehicle control).
In this assay, two weakly complementing fragments of the β-galactosidase are expressed within stably transfected cells. The complementing fragments of the β-galactosidase are translationally fused to the C-terminus of a full-length FXR and to the steroid receptor coactivator peptide (SRCP), respectively. When bound by ligand, the FXR will migrate to the nucleus and recruit the SRCP domain, whereby complementation occurs, generating a unit of active β-galactosidase and production of chemiluminescent signal. Thus, measurement of chemiluminescent signal directly reflects FXR-coactivator interaction.

patients with NASH = details: cited from earlier work
FXR [4] = target: T1, FXR; details: Chianelli et al., J. Med. Chem. 2020; cited from earlier work
PPARδ = target: T2, PPARδ (Homo sapiens, UniProt Q03181); test: Nuclear receptor selectivity panel (PathHunter NHR protein interaction assay); details: read-out: ref. compd (EC50); reference compound for PPARδ
T2 sequence (Q03181 1-441): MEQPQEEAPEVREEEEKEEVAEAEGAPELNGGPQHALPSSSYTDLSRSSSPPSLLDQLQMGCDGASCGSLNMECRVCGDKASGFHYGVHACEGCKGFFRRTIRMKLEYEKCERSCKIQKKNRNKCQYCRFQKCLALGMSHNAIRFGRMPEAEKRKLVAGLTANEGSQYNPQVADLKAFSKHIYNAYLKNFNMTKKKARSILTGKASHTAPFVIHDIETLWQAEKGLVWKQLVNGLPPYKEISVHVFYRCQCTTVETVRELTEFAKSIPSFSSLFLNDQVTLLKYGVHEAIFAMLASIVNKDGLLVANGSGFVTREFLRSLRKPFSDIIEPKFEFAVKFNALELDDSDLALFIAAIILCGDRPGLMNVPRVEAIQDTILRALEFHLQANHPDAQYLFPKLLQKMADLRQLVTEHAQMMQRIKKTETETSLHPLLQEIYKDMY

[5] = Fang et al., Nat. Med. 2015; cited from earlier work
FXR [6] = target: T1, FXR; test: PathHunter NHR protein interaction assay, antagonist mode (GW4064 challenge at EC80); format: cell-based; details: pre-incubation, then GW4064 at EC80
[7] = rat, intravenous Example 11, 5 mg/kg
[8] = Table 4, 5 concentrations, 3-fold dilution from 3.3 μM (GW4064: 10 conc. from 10 μM), one experiment in duplicate, NA = inactive at 3.3 μM
[9] = mean ± SEM of two or three independent experiments in duplicate
[10] = read-out: % max. rel. efficacy, Table 4, top conc. 3.3 μM, one experiment in duplicate
[11] = read-out: % max. rel. efficacy, Table 5, mean ± SEM of two or three independent experiments in duplicate
[12] = read-out: % max. rel. efficacy, Table 2, top conc. 3.3 μM, one experiment in duplicate
[13] = rat plasma, intravenous dose of Example 11, 5 mg/kg, Example 24 measured as metabolite
[14] = rat, intravenous dose of Example 11, 5 mg/kg, Example 24 measured as metabolite

SMILES: O=C(O)c1ccnc(N2CC(O)(c3ccc(OCc4c(-c5c(Cl)cccc5Cl)noc4C4CC4)cc3Cl)C2)c1 [cilofexor]
- median relative decrease in hepatic steatosis [1]: −22.7%
- moderate to severe pruritus (patients) [1]: 14%

SMILES: Cn1nc(C(=O)N(Cc2ccccc2)Cc2ccc(C(=O)O)cc2)c2c1-c1cc(Cl)ccc1OC2 [nidufexor]
- reduction of LFC (liver fat content) (patients with NASH; Phase II, NASH): about 30%
- rate of pruritus (patients with NASH; high-dose group): 54%
- rate of pruritus (patients with NASH; low-dose group): 30%
- maximum efficacy relative to GW4064 (FXR [4]): 57%

SMILES: CCCc1c(OCCCOc2ccc(OCC(=O)O)cc2)ccc(C(C)=O)c1O [L-165,041]
- EC50 (PPARδ): 0.006 µM

SMILES: COC(=O)/C=C/c1cccc(N(Cc2ccc(-c3ccc(N(C)C)cc3)cc2)C(=O)C2CCCCC2)c1 [Fexaramine, reference compound]
- oral bioavailability [5]: 12%
- EC50 (FXR [3]): 1 µM
- EC50 (FXR [3]; Table 2, 5 concentrations, 3-fold dilution from 3.3 μM (GW4064: 10 conc. from 10 μM), one experiment in duplicate, NA = inactive at 3.3 μM): 0.8 µM
- % max. rel. efficacy (FXR [3]; [9]): 29 ± 4^b %
- Emax (FXR [3]; [12]): 21%
- Emax (FXR [3]; [10]): 34%
- Emax (FXR [3]; [11]): 29 ± 4%

SMILES: COC(=O)/C=C/c1cccc(N(Cc2ccc(-c3ccc(N(C)C)cc3Cl)c(C#N)c2)C(=O)C2CCCCC2)c1 [Example 7, (E)-3-(3-((2′-chloro-2-cyano-4′-dimethylaminobiphenyl-4-ylmethyl)cyclohexane-carbonylamino)phenyl)acrylic acid methyl ester]
- EC50 (FXR [3]; [8]): 1.2 µM
- Emax (FXR [3]; [10]): 21%

SMILES: COC(=O)/C=C/c1cccc(N(Cc2ccc(-c3ccc(N(C)C)cc3)c(CO)c2)C(=O)C2CCCCC2)c1 [Example 1, (E)-3-(3-(cyclohexanecarbonyl-(4′-dimethylamino-2-hydroxymethylbiphenyl-4-ylmethyl)amino)phenyl)acrylic acid methyl ester]
- Emax (FXR [3]; [12]): 1%

The next lines start with results.

- bioavailability ([2]; male, Sprague-Dawley, plasma, rat, oral 80 mg/kg vs intravenous 5 mg/kg, dose-corrected AUClast ratio, read-out: F (oral bioavailability)): 4%
- AUC(0-t) ([2]; male, Sprague-Dawley, rat plasma, oral dose of Example 11, 80 mg/kg in corn oil): 1500 ± 600 ng·h/mL
- detected in plasma until (time after administration) [2, 7]: 20 min
- detected after (time after oral administration) ([2]; rat): 5 h
- EC50 (FXR [3]; [8]): 0.9 µM
- % max. rel. efficacy (FXR [3]; [9]): 53 ± 3^c* %
- Emax (FXR [3]; [10]): 56%
- Emax (FXR [3]; [11]): 53 ± 3%
SMILES: COC(=O)/C=C/c1cc(F)cc(N(Cc2ccc(-c3ccc(N(C)C)cc3)c(C#N)c2)C(=O)C2CCCCC2)c1 [Example 11, (E)-3-(3-((2-cyano-4′-dimethylaminobiphenyl-4-ylmethyl)cyclohexanecarbonylamino)-5-fluorophenyl)acrylic Acid Methyl Ester]
- metabolism after intravenous administration [2, 7]: rapidly metabolized to the corresponding carboxylic acid, Example 24

- % antagonistic efficacy (FXR [6]; 3.3 μM): 7%
- % antagonistic efficacy (FXR [6]; 10 μM): 26%
- AUClast [2, 13]: 1200 ± 100 ng·h/mL
- t1/2 [2, 13]: 14.4 ± 3 min
- detected in plasma until (time after administration) ([2]; rat, intravenous Example 11, 5 mg/kg, metabolite): 60 min
- CL [2, 14]: 70 ± 6.7 mL/min/kg
- Vss [2, 14]: 1.4 ± 0.2 L/kg
- detected after (time after oral administration) ([2]; rat): 3 h
- % agonistic efficacy (FXR [3]; Table 7, 10 μM): 0%
SMILES: CN(C)c1ccc(-c2ccc(CN(C(=O)C3CCCCC3)c3cc(F)cc(/C=C/C(=O)O)c3)cc2C#N)cc1 [Example 24]

- EC50 (FXR [3]; [8]): 1.2 µM
- Emax (FXR [3]; [10]): 40%
SMILES: CCOC(=O)/C=C/c1cccc(N(Cc2ccc(-c3ccc(N(C)C)cc3)c(C#N)c2)C(=O)C2CCCCC2)c1 [Example 9, (E)-3-(3-((2-cyano-4′-dimethylaminobiphenyl-4-ylmethyl)cyclohexanecarbonylamino)phenyl)acrylic acid ethyl ester]

- EC50 (FXR [3]; [8]): 1.5 µM
- Emax (FXR [3]; [10]): 15%
SMILES: COC(=O)/C=C/c1ccc(F)c(N(Cc2ccc(-c3ccc(N(C)C)cc3)c(C#N)c2)C(=O)C2CCCCC2)c1 [Example 20, (E)-3-(3-((2-cyano-4′-dimethylaminobiphenyl-4-ylmethyl)cyclohexanecarbonylamino)-4-fluorophenyl)acrylic acid methyl ester]

- Emax (FXR [3]; [10]): 42%
SMILES: CC(C)OC(=O)/C=C/c1cccc(N(Cc2ccc(-c3ccc(N(C)C)cc3)c(C#N)c2)C(=O)C2CCCCC2)c1F [Example 19, (E)-3-(3-((2-cyano-4′-dimethylaminobiphenyl-4-ylmethyl)cyclohexanecarbonylamino)-2-fluorophenyl)acrylic acid isopropyl ester]
